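Five concentrations, 48 hours, 96-well plates. GI50 = concentration required for 50% inhibition of growth.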 Activity calls are given as the source filed them. No stated cut-off is given here; in the data, active = GI50 up to about 1.1 µM and inactive = higher. Where a SMILES comes first, the peptide text is derived from it. [ ]: non-standard residue; d: D form. Ac5c = NC1(C(=O)O)CCCC1
Columns and labels:
Assay in all cases: DTP human tumour cell line panel, 48 h
HCT-15 = tested on: HCT-15
A498 = tested on: A498
OVCAR-3 = tested on: OVCAR-3
TK-10 = tested on: TK-10
BT-549 = tested on: BT-549
K562 = tested on: K562
U-251 = tested on: U-251
CAKI-1 = tested on: CAKI-1
LOX IMVI = tested on: LOX IMVI
NCI-H460 = tested on: NCI-H460
OVCAR-5 = tested on: OVCAR-5
UACC-62 = tested on: UACC-62
NCI-H522 = tested on: NCI-H522
UACC-257 = tested on: UACC-257
DU-145 = tested on: DU-145
MDA-MB-231 = tested on: MDA-MB-231
Malme-3M = tested on: Malme-3M
SK-OV-3 = tested on: SK-OV-3
HOP-92 = tested on: HOP-92
SF-539 = tested on: SF-539

| Structure (SMILES) | GI50 (HCT-15) [µM] | GI50 (A498) | GI50 (OVCAR-3) | GI50 (TK-10) | GI50 (BT-549) | GI50 (K562) | GI50 (U-251) | GI50 (CAKI-1) | GI50 (LOX IMVI) | GI50 (NCI-H460) | GI50 (OVCAR-5) | GI50 (UACC-62) | GI50 (NCI-H522) | GI50 (UACC-257) | GI50 (DU-145) | GI50 (MDA-MB-231) | GI50 (Malme-3M) | GI50 (SK-OV-3) | GI50 (HOP-92) | GI50 (SF-539) |
| --- | --- | --- | --- | --- | --- | --- | --- | --- | --- | --- | --- | --- | --- | --- | --- | --- | --- | --- | --- | --- |
| CC(C)[Si](OC/C(=C/COC(C)(C)C)[C@H]1CC=C(C(=O)c2ccccc2N2CN(C)C(=O)N(C)C2)C1)(C(C)C)C(C)C | 12.3 | 19.7 µM (inactive) | 9.93 µM (inactive) | 10.1 µM (inactive) | 13.4 µM (inactive) | 1.08 µM (active) | 10.1 µM (inactive) | 4.29 µM (inactive) | 2.07 µM (inactive) | 12.6 µM (inactive) | 14.2 µM (inactive) | 10.8 µM (inactive) | 7.41 µM (inactive) | 6.28 µM (inactive) | 13.5 µM (inactive) | 11.9 µM (inactive) | 7.94 µM (inactive) | 15.6 µM (inactive) | 9.73 µM (inactive) | 6.78 µM (inactive) |
| O=Cc1cn(CCCCCCCCCCCCn2cc(C=O)c3ccccc32)c2ccccc12 | > 100 | 61 µM (inactive) | > 100 µM (inactive) | > 100 µM (inactive) | > 100 µM (inactive) | 0.615 µM (active) | > 100 µM (inactive) | > 100 µM (inactive) | > 100 µM (inactive) | > 10 µM (inactive) | 99.1 µM (inactive) | > 100 µM (inactive) | 38.3 µM (inactive) | 2.47 µM (inactive) | > 100 µM (inactive) | > 100 µM (inactive) | > 100 µM (inactive) | > 100 µM (inactive) | > 100 µM (inactive) | > 100 µM (inactive) |
| Cc1ccc(NC(c2ccccc2)c2ccc3cccnc3c2O)cc1 (stereo not given) | 2.64 | 12.2 µM (inactive) | 2.59 µM (inactive) | 5.22 µM (inactive) | 4.33 µM (inactive) | 3.02 µM (inactive) | 2.82 µM (inactive) | 5.11 µM (inactive) | 3.6 µM (inactive) | 2.58 µM (inactive) | 7.11 µM (inactive) | 3.84 µM (inactive) | 2.17 µM (inactive) | 9.79 µM (inactive) | 11.1 µM (inactive) | 4.55 µM (inactive) | 3.05 µM (inactive) | 7.91 µM (inactive) | 3.48 µM (inactive) | 2.33 µM (inactive) |
| NC1(C(=O)NC2(C(=O)O)CCCC2)CCCC1 (H-[Ac5c]-[Ac5c]-OH) | > 100 | > 100 µM (inactive) | > 100 µM (inactive) | > 100 µM (inactive) | > 100 µM (inactive) | > 100 µM (inactive) | > 100 µM (inactive) | > 100 µM (inactive) | > 100 µM (inactive) | > 100 µM (inactive) | > 100 µM (inactive) | > 100 µM (inactive) | > 100 µM (inactive) | > 100 µM (inactive) | > 100 µM (inactive) | > 100 µM (inactive) | > 100 µM (inactive) | > 100 µM (inactive) | > 100 µM (inactive) | > 100 µM (inactive) |
| O=C1Cc2c([nH]c3ccc([N+](=O)[O-])cc23)-c2ccccc2N1 [ALSTERPAULLONE] | 0.237 | 0.822 µM (active) | 0.158 µM (active) | 0.757 µM (active) | 1.08 µM (active) | 0.774 µM (active) | 0.471 µM (active) | 0.332 µM (active) | 0.181 µM (active) | 0.396 µM (active) | 0.22 µM (active) | 0.94 µM (active) | 1.22 µM (inactive) | 1.11 µM (active) | 0.209 µM (active) | 1.16 µM (inactive) | 9.08 µM (inactive) | 2.3 µM (inactive) | 7.93 µM (inactive) | 0.397 µM (active) |

Source: ChEMBL document CHEMBL1201862, “PubChem BioAssay data set” (2004)
